Molecular target: T1, SMARCA2 (Homo sapiens, UniProt P51531)
T1 construct: endogenous in cells
Assay: SMARCA2 HiBiT degradation assay (cellular)
Assay type: cell-based
Settings: for Emax: A549, Emax = amount of residual protein remaining in the cell following compound treatment; for DC50: SMARCA2 HiBiT cells, luminescence readout, 11-point titration from 10 μM, 6 hours or 16 hours, read-out: HiBit A549 SMARCA2 IP

T1 sequence (P51531 whole entry): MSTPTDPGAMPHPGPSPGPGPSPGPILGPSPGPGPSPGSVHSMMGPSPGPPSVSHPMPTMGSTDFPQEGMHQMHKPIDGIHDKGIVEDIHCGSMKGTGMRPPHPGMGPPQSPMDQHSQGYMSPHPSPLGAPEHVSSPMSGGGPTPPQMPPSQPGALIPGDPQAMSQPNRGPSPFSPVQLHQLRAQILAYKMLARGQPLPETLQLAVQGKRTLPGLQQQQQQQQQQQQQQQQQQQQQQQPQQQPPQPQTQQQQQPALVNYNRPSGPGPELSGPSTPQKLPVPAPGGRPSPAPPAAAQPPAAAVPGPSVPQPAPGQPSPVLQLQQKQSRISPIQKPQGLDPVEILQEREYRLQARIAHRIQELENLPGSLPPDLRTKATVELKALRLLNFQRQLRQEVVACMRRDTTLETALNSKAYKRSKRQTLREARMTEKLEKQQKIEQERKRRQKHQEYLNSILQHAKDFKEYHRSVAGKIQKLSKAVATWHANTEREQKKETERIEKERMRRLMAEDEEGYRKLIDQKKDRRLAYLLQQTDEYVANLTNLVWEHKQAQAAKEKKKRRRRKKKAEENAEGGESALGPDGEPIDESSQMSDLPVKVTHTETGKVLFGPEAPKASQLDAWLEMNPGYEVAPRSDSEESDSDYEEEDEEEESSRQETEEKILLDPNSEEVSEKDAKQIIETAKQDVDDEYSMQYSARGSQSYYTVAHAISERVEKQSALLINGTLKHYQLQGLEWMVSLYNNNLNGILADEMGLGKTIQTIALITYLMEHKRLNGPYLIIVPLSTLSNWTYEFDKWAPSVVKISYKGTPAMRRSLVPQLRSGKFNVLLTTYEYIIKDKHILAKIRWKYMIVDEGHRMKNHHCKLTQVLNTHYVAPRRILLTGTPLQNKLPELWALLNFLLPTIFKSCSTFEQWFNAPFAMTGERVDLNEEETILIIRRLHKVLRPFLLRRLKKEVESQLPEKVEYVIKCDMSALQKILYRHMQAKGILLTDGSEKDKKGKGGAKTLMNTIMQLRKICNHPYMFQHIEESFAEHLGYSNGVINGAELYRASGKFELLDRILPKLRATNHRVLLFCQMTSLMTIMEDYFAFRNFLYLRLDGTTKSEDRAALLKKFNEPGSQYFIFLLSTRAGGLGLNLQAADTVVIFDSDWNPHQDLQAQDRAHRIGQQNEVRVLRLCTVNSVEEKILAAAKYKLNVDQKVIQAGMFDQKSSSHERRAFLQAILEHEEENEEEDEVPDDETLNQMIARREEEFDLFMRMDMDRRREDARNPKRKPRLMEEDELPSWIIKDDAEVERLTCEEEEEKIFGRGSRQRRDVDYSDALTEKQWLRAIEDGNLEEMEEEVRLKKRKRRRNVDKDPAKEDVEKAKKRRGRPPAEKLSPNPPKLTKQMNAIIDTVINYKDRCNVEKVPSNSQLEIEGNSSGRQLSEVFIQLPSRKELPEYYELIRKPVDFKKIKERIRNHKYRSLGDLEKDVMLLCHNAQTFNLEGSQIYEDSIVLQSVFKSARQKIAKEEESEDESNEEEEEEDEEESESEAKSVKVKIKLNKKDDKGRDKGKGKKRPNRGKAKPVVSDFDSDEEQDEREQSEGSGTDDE

| Emax | DC50 | SMILES |
| --- | --- | --- |
| 39% | 952 nM | Cc1ncsc1-c1ccc(CNC(=O)[C@@H]2C[C@@H](O)CN2C(=O)[C@@H](NC(=O)CCCCCCCCC(=O)N2CCN(CCOc3cccc(C#Cc4cc(-c5ccccc5O)nnc4N)c3)CC2)C(C)(C)C)cc1 [Example 35, (2S,4R)-1-[(2S)-2-[[10-[4-[2-[3-[2-[3-amino-6-(2-hydroxyphenyl)pyridazin-4-yl]ethynyl]phenoxy]ethyl]piperazin-1-yl]-10-oxo-decanoyl]amino]-3,3-dimethyl-butanoyl]-4-hydroxy-N-[[4-(4-methylthiazol-5-yl)phenyl]methyl]pyrrolidine-2-carboxamide] |
| 49% | 838 nM | Cc1ncsc1-c1ccc(CNC(=O)[C@@H]2C[C@@H](O)CN2C(=O)[C@@H](NC(=O)CCCCCCCCCCC(=O)N2CCN(CCOc3cccc(C#Cc4cc(-c5ccccc5O)nnc4N)c3)CC2)C(C)(C)C)cc1 [Example 36, (2S,4R)-1-[(2S)-2-[[12-[4-[2-[3-[2-[3-amino-6-(2-hydroxyphenyl)pyridazin-4-yl]ethynyl]phenoxy]ethyl]piperazin-1-yl]-12-oxo-dodecanoyl]amino]-3,3-dimethyl-butanoyl]-4-hydroxy-N-[[4-(4-methylthiazol-5-yl)phenyl]methyl]pyrrolidine-2-carboxamide] |
| 71% | 561 nM | Cc1ncsc1-c1ccc([C@H](C)NC(=O)[C@@H]2C[C@@H](O)CN2C(=O)[C@@H](NC(=O)CCC(=O)N2CCOC3(CCN(c4cc(-c5ccccc5O)nnc4N)CC3)C2)C(C)(C)C)cc1 [Example 42, (2S,4R)-1-[(2S)-2-[[4-[9-[3-amino-6-(2-hydroxyphenyl)pyridazin-4-yl]-1-oxa-4,9-diazaspiro[5.5]undecan-4-yl]-4-oxo-butanoyl]amino]-3,3-dimethyl-butanoyl]-4-hydroxy-N-[(1S)-1-[4-(4-methylthiazol-5-yl)phenyl]ethyl]pyrrolidine-2-carboxamide] |
| 23% | 749 nM | Cc1ncsc1-c1ccc([C@H](C)NC(=O)[C@@H]2C[C@@H](O)CN2C(=O)[C@@H](NC(=O)CCCCCC(=O)N2CCOC3(CCN(c4cc(-c5ccccc5O)nnc4N)CC3)C2)C(C)(C)C)cc1 [Example 43, (2S,4R)-1-[(2S)-2-[[7-[9-[3-amino-6-(2-hydroxyphenyl)pyridazin-4-yl]-1-oxa-4,9-diazaspiro[5.5]undecan-4-yl]-7-oxo-heptanoyl]amino]-3,3-dimethyl-butanoyl]-4-hydroxy-N-[(1S)-1-[4-(4-methylthiazol-5-yl)phenyl]ethyl]pyrrolidine-2-carboxamide] |
| 21% | 205 nM | Cc1ncsc1-c1ccc([C@H](C)NC(=O)[C@@H]2C[C@@H](O)CN2C(=O)[C@@H](NC(=O)CCCCCCCCCCC(=O)N2CCOC3(CCN(c4cc(-c5ccccc5O)nnc4N)CC3)C2)C(C)(C)C)cc1 [Example 44, (2S,4R)-1-[(2S)-2-[[12-[9-[3-amino-6-(2-hydroxyphenyl)pyridazin-4-yl]-1-oxa-4,9-diazaspiro[5.5]undecan-4-yl]-12-oxo-dodecanoyl]amino]-3,3-dimethyl-butanoyl]-4-hydroxy-N-[(1S)-1-[4-(4-methylthiazol-5-yl)phenyl]ethyl]pyrrolidine-2-carboxamide] |
| 33% | 120 nM | Cc1ncsc1-c1ccc([C@H](C)NC(=O)[C@@H]2C[C@@H](O)CN2C(=O)[C@@H](NC(=O)CCCCCCCCCCCCC(=O)N2CCOC3(CCN(c4cc(-c5ccccc5O)nnc4N)CC3)C2)C(C)(C)C)cc1 [Example 45, (2S,4R)-1-[(2S)-2-[[14-[9-[3-amino-6-(2-hydroxyphenyl)pyridazin-4-yl]-1-oxa-4,9-diazaspiro[5.5]undecan-4-yl]-14-oxo-tetradecanoyl]amino]-3,3-dimethyl-butanoyl]-4-hydroxy-N-[(1S)-1-[4-(4-methylthiazol-5-yl)phenyl]ethyl]pyrrolidine-2-carboxamide] |
| 63% | 2150 nM | Cc1ncsc1-c1ccc(CNC(=O)[C@@H]2C[C@@H](O)CN2C(=O)[C@@H](NC(=O)CCCCCCCCC(=O)NCC(COc2cc(-c3ccccc3O)nnc2N)c2ccccc2)C(C)(C)C)cc1 (stereo partly drawn) [Example 50, N1-(3-((3-amino-6-(2-hydroxyphenyl)pyridazin-4-yl)oxy)-2-phenylpropyl)-N10-((S)-1-((2S,4R)-4-hydroxy-2-((4-(4-methylthiazol-5-yl)benzyl)carbamoyl)pyrrolidin-1-yl)-3,3-dimethyl-1-oxobutan-2-yl)decanediamide] |
| 56% | 533 nM | Cc1ncsc1-c1ccc(CNC(=O)[C@@H]2C[C@@H](O)CN2C(=O)[C@@H](NC(=O)CCCCCCCCC(=O)N2CCN(CCOc3cccc(N4CCOC5(CCN(c6cc(-c7ccccc7O)nnc6N)CC5)C4)c3)CC2)C(C)(C)C)cc1 [Example 52, (2S,4R)-1-[(2S)-2-[[10-[4-[2-[3-[9-[3-amino-6-(2-hydroxyphenyl)pyridazin-4-yl]-1-oxa-4,9-diazaspiro[5.5]undecan-4-yl]phenoxy]ethyl]piperazin-1-yl]-10-oxo-decanoyl]amino]-3,3-dimethyl-butanoyl]-4-hydroxy-N-[[4-(4-methylthiazol-5-yl)phenyl]methyl]pyrrolidine-2-carboxamide] |
| 44% | 240 nM | Cc1ncsc1-c1ccc(CNC(=O)[C@@H]2C[C@@H](O)CN2C(=O)[C@@H](NC(=O)CCCCCCCCC(=O)N2CCN(Cc3cccc(C#Cc4cc(-c5ccccc5O)nnc4N)c3)CC2)C(C)(C)C)cc1 [Example 53, (2S,4R)-1-[(2S)-2-[[10-[4-[[3-[2-[3-amino-6-(2-hydroxyphenyl)pyridazin-4-yl]ethynyl]phenyl]methyl]piperazin-1-yl]-10-oxo-decanoyl]amino]-3,3-dimethyl-butanoyl]-4-hydroxy-N-[[4-(4-methylthiazol-5-yl)phenyl]methyl]pyrrolidine-2-carboxamide] |
| 35% | 503 nM | Cc1ncsc1-c1ccc(CNC(=O)[C@@H]2C[C@@H](O)CN2C(=O)[C@@H](NC(=O)CCCCCCCCCCC(=O)N2CCN(Cc3cccc(C#Cc4cc(-c5ccccc5O)nnc4N)c3)CC2)C(C)(C)C)cc1 [Example 54, (2S,4R)-1-[(2S)-2-[[12-[4-[[3-[2-[3-amino-6-(2-hydroxyphenyl)pyridazin-4-yl]ethynyl]phenyl]methyl]piperazin-1-yl]-12-oxo-dodecanoyl]amino]-3,3-dimethyl-butanoyl]-4-hydroxy-N-[[4-(4-methylthiazol-5-yl)phenyl]methyl]pyrrolidine-2-carboxamide] |
| 35% | 736 nM | Cc1ncsc1-c1ccc([C@H](C)NC(=O)[C@@H]2C[C@@H](O)CN2C(=O)[C@@H](NC(=O)CCCCCC(=O)N2CCN(CCOc3cccc(CCOc4cc(-c5ccccc5O)nnc4N)c3)CC2)C(C)(C)C)cc1 [Example 57, (2S,4R)-1-[(2S)-2-[[7-[4-[2-[3-[2-[3-amino-6-(2-hydroxyphenyl)pyridazin-4-yl]oxyethyl]phenoxy]ethyl]piperazin-1-yl]-7-oxo-heptanoyl]amino]-3,3-dimethyl-butanoyl]-4-hydroxy-N-[(1S)-1-[4-(4-methylthiazol-5-yl)phenyl]ethyl]pyrrolidine-2-carboxamide] |
| 22% | 197 nM | Cc1ncsc1-c1ccc([C@H](C)NC(=O)[C@@H]2C[C@@H](O)CN2C(=O)[C@@H](NC(=O)CCCCCCCCC(=O)N2CCN(CCOc3cccc(CCOc4cc(-c5ccccc5O)nnc4N)c3)CC2)C(C)(C)C)cc1 [Example 58, (2S,4R)-1-[(2S)-2-[[10-[4-[2-[3-[2-[3-amino-6-(2-hydroxyphenyl)pyridazin-4-yl]oxyethyl]phenoxy]ethyl]piperazin-1-yl]-10-oxo-decanoyl]amino]-3,3-dimethyl-butanoyl]-4-hydroxy-N-[(1S)-1-[4-(4-methylthiazol-5-yl)phenyl]ethyl]pyrrolidine-2-carboxamide] |

| SMILES | Emax | DC50 |
| --- | --- | --- |
| Cc1ncsc1-c1ccc([C@H](C)NC(=O)[C@@H]2C[C@@H](O)CN2C(=O)[C@@H](NC(=O)CCCCCCCCCC(=O)N2CCN(CCOc3cccc(N4C5CCC4CN(c4cc(-c6ccccc6O)nnc4N)C5)c3)CC2)C(C)(C)C)cc1 [Example 37, (2S,4R)-1-[(2S)-2-[[11-[4-[2-[3-[3-[3-amino-6-(2-hydroxyphenyl)pyridazin-4-yl]-3,8-diazabicyclo[3.2.1]octan-8-yl]phenoxy]ethyl]piperazin-1-yl]-11-oxo-undecanoyl]amino]-3,3-dimethyl-butanoyl]-4-hydroxy-N-[(1S)-1-[4-(4-methylthiazol-5-yl)phenyl]ethyl]pyrrolidine-2-carboxamide] | 29% | 73 nM |
| Cc1ncsc1-c1ccc(CNC(=O)[C@@H]2C[C@@H](O)CN2C(=O)[C@@H](NC(=O)CCCCCCCCC(=O)N2CCN(CCOc3ccccc3N3C4CCC3CN(c3cc(-c5ccccc5O)nnc3N)C4)CC2)C(C)(C)C)cc1 [Example 55, (2S,4R)-1-[(2S)-2-[[10-[4-[2-[2-[3-[3-amino-6-(2-hydroxyphenyl)pyridazin-4-yl]-3,8-diazabicyclo[3.2.1]octan-8-yl]phenoxy]ethyl]piperazin-1-yl]-10-oxo-decanoyl]amino]-3,3-dimethyl-butanoyl]-4-hydroxy-N-[[4-(4-methylthiazol-5-yl)phenyl]methyl]pyrrolidine-2-carboxamide] | 27% | 2580 nM |
| Cc1ncsc1-c1ccc([C@H](C)NC(=O)[C@@H]2C[C@@H](O)CN2C(=O)[C@@H](NC(=O)CCCCCCCCCC(=O)N2CCN(CCOc3cccc(N4C5CCC4CN(c4cc(-c6ccccc6O)nnc4N)C5)c3)CC2)C(C)C)cc1 [Example 56, (2S,4R)-1-[(2S)-2-[[11-[4-[2-[3-[3-[3-amino-6-(2-hydroxyphenyl)pyridazin-4-yl]-3,8-diazabicyclo[3.2.1]octan-8-yl]phenoxy]ethyl]piperazin-1-yl]-11-oxo-undecanoyl]amino]-3-methyl-butanoyl]-4-hydroxy-N-[(1S)-1-[4-(4-methylthiazol-5-yl)phenyl]ethyl]pyrrolidine-2-carboxamide] | 20% | 91 nM |
